Assay results from patent US20130171073A1 (CEDARS-SINAI MEDICAL CENTER, priority 2010, published 2013).
Entries after “also recorded” stand apart in the source; their conditions may differ. One block for each molecule: values may come before it.

Assays:
[1] = system: pituitary POMC cells overexpressing zPttg; experiment: In vivo treatment of Tg:Pomc-Pttg; POMC-eGFP zebrafish embryos with CDK inhibitors, pituitary POMC-eGFP fluorescence; details: for reduction in pituitary POMC-eGFP expression compared with controls: 50 μM in embryo medium, control 0.2% DMSO
Procedure: (§1) Results represent one of three similar experiments.
(§2) WT and transgenic embryos were examined at various developmental stages under a fluorescein isothiocyanate filter on an Axioplan-2 microscope (Carl Zeiss). Live embryo images were generated with an Axiocam video system (Carl Zeiss). Fluorescence intensity of POMC-GFP-positive cells was measured by the area of interest function in Openlab software (Improvision). For confocal imaging, images were captured in a Z-series by using a TCS SP confocal microscope (Leica Microsystems). GFP was detected at a spectral range from 507 to 550 nm, RFP from 585 to 690 nm, and DAPI from 460 to 480 nm. Images were prepared using Leica LCS lite, Volocity 5.2 (Improvision), and Photoshop 7.0 (Adobe). Pituitary GFP and RFP intensity and area were measured using Volocity 5.2 (Improvision). Lipid Staining Liver cryosections were stained with oil redO (Sigma-Aldrich) per manufacturer's protocol. Lipid staining was scored based upon area distribution (>50% positive cells, 2 points; <50% but >10%, 1 point; <10%, 0 points) and intensity [strong, large (size of cell) lipid droplets, 2 points; weak, small (smaller than cell size) lipid droplets, 1 point; negative, 0 points].

[2] = system: AtT20 corticotroph tumor xenografts; experiment: Plasma ACTH and serum corticosterone in AtT20 xenograft-bearing nude mice; details: 150 mg/kg oral gavage twice daily, three weeks
Excerpt: (§3) Athymic nude mice were subcutaneously inoculated with corticotroph tumor AtT20 cells (1×10^5 cells). […] (D) Blood was collected from each animal for measurement of plasma ACTH and serum corticosterone levels.
Mouse corticotroph tumor AtT20 cells (−1×10^5) were inoculated s.c. into 6-wk-old female nu/nu mice. […] After 3 wk of treatment, mice were killed by CO2 inhalation, and tumors were dissected, weighted, and snapfrozen for further analysis.

zebrafish embryos = experiment: Gross morphology / development of zebrafish embryos exposed to CDK inhibitors; details: 50 μM, starting at 18 hpf, observed by 40 hpf
Procedure: (C) In vivo treatment of Tg:Pomc-Pttg; Pomc-eGFP embryos with different small molecule CDK inhibitors (50 μM) or 0.2% DMSO as control from 18-40 hpf. 100-150 embryos were treated with each compound at a time. Representative images of live embryos are shown with gross morphology (right panels) and pituitary Pomc-GFP positive cells at higher magnification (left panels) at 40 hpf. […] (D) Relative expression of pituitary Pomc-eGFP fluorescence were analyzed using Velocity 5.2 (Improvision) (mean±SE of relative expression, n=7 randomly picked embryos from 100-150 embryos of each group). […] Results represent one of three similar experiments. Scale bar, 50 μm. *, p<0.02; **, p<0.000005.
Tg:Pomc-Pttg; POMC-eGFP double transgenic embryos were exposed to each compound added to the embryo culture medium.
Dexamethasone (Sigma) was dissolved in distilled water, R-roscovitin (Selleck Chemicals), flavopiridol (Selleck Chemicals), PD0332991 (Selleck Chemicals), olomoucine (Cayman Chemical Co.), and CAY10578 (Cayman Chemical Co.) were dissolved in 0.2% DMSO at a stock concentration of 1 mM, and diluted in fish medium immediately before adding to live embryos at the stages indicated.

[3] = system: pituitary lactotrophs (Prl-RFP); experiment: In vivo treatment of Tg:Pomc-Pttg; Prl-RFP zebrafish embryos, pituitary Prl-RFP fluorescence; details: 50 μM, 18 to 48 hpf
Procedure: as §1, §2

AtT20 cells [4] = experiment: Senescence (β-galactosidase expression) in AtT20 cells; details: 10 μM, 48 hours
[5] = system: mouse pituitary ACTH-secreting tumor AtT20 cell line; experiment: Wst-1 cell proliferation assay in AtT20 cells; details: 1−2×10^−5 M
[6] = system: AtT20 corticotroph tumor xenografts; experiment: AtT20 corticotroph tumor xenograft in athymic nude mice, tumor growth and tumor protein expression; details: 150 mg/kg oral gavage twice daily
Procedure: as §3
Animal experiments were performed in accordance with Cedars-Sinai Institutional Animal Care and Use committee guidelines. Mouse corticotroph tumor AtT20 cells (−1×10^5) were inoculated s.c. into 6-wk-old female nu/nu mice. […] After 3 wk of treatment, mice were killed by CO2 inhalation, and tumors were dissected, weighted, and snapfrozen for further analysis.
Protein samples were prepared in RIPA buffer (Sigma), separated on NuPAGE Novex Bis-Tris Gels (Invitrogen), and transferred onto PVDF membrane (Millipore) before blotting with primary antibody [cyclin E, 1:500 (Abcam); PTTG, 1:1,000 (Abcam); β-actin, 1:5,000 (Sigma); and p21, 1:1,000, p27, 1:500, p57, 1:1,000, pRb821, 1:1,000 (Santa Cruz Biotechnology)] at 4° C. overnight. After washes with 0.5% Tween-20 in Tris-buffered saline solution, membranes were incubated with horseradish peroxidaselinked secondary antibody (GE Healthcare) and developed using ECL Western blotting detection reagents (GE Healthcare).

AtT20 cells [7] = experiment: ACTH radioimmunoassay of AtT20 culture medium; details: AtT20 cells vs vehicle
[8] = Insulin tolerance test in adult zebrafish; format: in vivo; details: 0.1 unit/100 mg
Procedure: Zebrafish glucocorticoid steroidogenic cells are arranged as epithelial cell layers (arrowheads) in association with the renal head posterior cardinal vein (PCV) 28. […] Glucose tolerance tests were performed in 72 Tg:pomc-pttg and WT fish. Zebrafish was given ad lib feeding of regular diet for one hour (grey column) after 16 hours of fasting. Blood glucose was measured at different time points after re-feeding. Glucose levels are presented as mean±SE (AUC, p<0.0001). (C) Insulin tolerance tests in Tg:pomc-pttg and WT fish. […] (D) Oil red O(ORO) staining of liver sections reveal hepatic lipid accumulation in Tg:Pomc-pttg transgenics. (E) Area distribution and intensity of hepatic ORO staining were scored (mean±SE, *, p<0.01). […] Top, Tg:Pomc-pttg zebrafish (Tg) with gross pericardial fluid accumulation (arrow) compared with wildtype (WT) at 24 months. […]
To determine the metabolic impact of hypercortisolism in Tg:Pomc-Pttg zebrafish, adult Tg:Pomc-Pttg and WT fish were subjected to 16 hour fasting followed by ad libitum feeding of regular diet for one hour. […] Because teleost fish are glucose intolerant due to blunted peripheral responses to insulin^29, and glucocorticoids induce insulin resistance in mammals, insulin sensitivity was assessed by testing blood glucose responses to intraperitoneally administered insulin. […]

[9] = 18-40 hpf, Tg:Pomc-Pttg, POMC-eGFP embryos

Molecule: O=C1NCCc2[nH]c(-c3ccncc3)cc21 [CAY10572]
change in pituitary POMC-eGFP expression compared with controls ([1]; 50 μM, 18-40 hpf, Tg:Pomc-Pttg, POMC-eGFP embryos): no significant change

Molecule: CC[C@H](CO)Nc1nc(NCc2ccccc2)c2ncn(C(C)C)c2n1 [R-roscovitine]
reduction in pituitary POMC-eGFP expression compared with controls [1, 9]: approximately 40%
reduction of POMC-eGFP expression compared with control ([1]; 50 μM, 18 to 48 hpf, Tg:Pomc-Pttg, POMC-eGFP embryos): greater than 50%
reduction in plasma ACTH levels [2]: > 50%
reduction in serum corticosterone levels [2]: ~50%
embryonic growth / development of treated embryos (zebrafish embryos): no apparent growth defect
effect on Prl-RFP expression [3]: no effect
β-galactosidase expression (senescence) (AtT20 cells [4]): increased
number of viable cells (Wst-1) ([5]; at 24 and 48 hours): decreased number of viable cells
cell number ([5]; by 24 hours): decreased cell number
numbers of PCNA and ACTH co-expressing cells in tumors ([6]; 3 weeks): decreased
tumor volumes ([6]; 5 days per week, 3 weeks): decreased
weight reduction of dissected tumor xenografts ([6]; 5 days per week, three weeks): ~50%
weight of dissected tumor xenografts (mean±S.E.) ([6]; 5 days per week, three weeks, vehicle 40.0±4.7 mg, n=13-14): 21.0 ± 2.6 mg
ACTH protein expression in tumor specimens (Western-blot and immunohistochemistry) ([6]; three weeks): suppressed
PCNA protein expression in tumor specimens (Western-blot and immunohistochemistry) ([6]; three weeks): suppressed
ACTH concentration in culture medium (RIA) (AtT20 cells [7]): decreased

Molecule: CN1CC[C@@H](c2c(O)cc(O)c3c(=O)cc(-c4ccccc4Cl)oc23)[C@H](O)C1 [flavopiridol, 2-(2-chlorophenyl)-5,7-dihydroxy-8-((3S,4S)-3-hydroxy-1-methylpiperidin-4-yl)-4H-chromen-4-one]
embryonic growth / development of treated embryos (zebrafish embryos): early developmental defect; also recorded: retarded early embryonic development

embryonic growth / development of treated embryos (zebrafish embryos): no apparent growth defect
Molecule: Cn1cnc2c(NCc3ccccc3)nc(NCCO)nc21 [olomoucine]
reduction in pituitary POMC-eGFP expression compared with controls [1, 9]: approximately 20%
relative expression of pituitary POMC-eGFP fluorescence (mean±S.E.) ([1]; 50 μM, 18-40 hpf, n=7, control 1.0±0.08): 0.8±0.07

Molecule: insulin: insulin injected intraperitoneally for insulin tolerance test
blood glucose response to intraperitoneal insulin ([8]; Tg:Pomc-Pttg fish, up to 90 minutes after injection): no significant change
blood glucose response to intraperitoneal insulin ([8]; WT fish, 30 minutes after injection): brisk hypoglycemic response
